In patent US20110318741A1, “BIOMARKERS FOR THE TREATMENT OF PSORIASIS” (priority 2010, published 2011):

Test system: psoriasis lesional skin
Assay: Histological analysis (immunohistochemistry, H&E) of skin biopsies from psoriasis patients in a clinical trial
Format: in vivo, human
Settings: for CD56 in Epidermis: Biopsy Parameters Median Change (%) / Langerin in Dermis: Biopsy Parameters Median Change (%) / CD11c in Epidermis: Biopsy Parameters Median Change (%) / CD3 in Dermis: Biopsy Parameters Median Change (%) / CD3 in Epidermis: Biopsy Parameters Median Change (%) / Thickness: Biopsy Parameters Median Change (%) / CD11c in Dermis: Biopsy Parameters Median Change (%) / CD56 in Dermis: Biopsy Parameters Median Change (%) / Langerin in Epidermis: Biopsy Parameters Median Change (%): subjects also with PASI values
Procedure: Skin biopsies were evaluated on 20 patients in a clinical trial, where 20 mg of (S)—N-(2-(1-(3-ethoxy-4-methoxyphenyl)-2-(methylsulfonyl)ethyl)-1,3-dioxoisoindolin-4-yl)acetamide was administered b.i.d. to patients with psoriasis. Skin biopsies were done 4 weeks and 12 weeks post-treatment.
The biopsies were subjected to a histological analysis in which response was assessed in H&E stained sections of skin biopsies and after staining frozen sections of skin biopsies with antibodies to keratin 16. CD3, CD11c. ICAM-1. Langerin, CD56, Foxp3, and HLA-DR. This analysis thus included an assessment of epidermal growth/differentiation, skin infiltration by T-cells and DC subsets, presence of regulatory T-cells, and presence of inflammation-regulating molecules in skin lesions.
The pharmacodynamic effects of (S)—N-(2-(1-(3-ethoxy-4-methoxyphenyl)-2-(methylsulfonyl)ethyl)-1,3-dioxoisoindolin-4-yl)acetamide were studied in skin biopsies from subjects treated with the compound in a phase 2, multi-center, open-label study evaluating the safety, tolerability, and efficacy of the compound in recalcitrant psoriasis vulgaris. Skin biopsies were taken from uninvolved and involved skin at baseline, and from involved skin after treatment with (S)—N-(2-(1-(3-ethoxy-4-methoxyphenyl)-2-(methylsulfonyl)ethyl)-1,3-dioxoisoindolin-4-yl)acetamide 20 mg BID after 4 and 12 weeks.
Skin biopsies were evaluated on 20 patients in this trial. The biopsies were analyzed by immunohistochemistry for a set of cellular markers (keratin 16, CD3. CD11c. ICAM-1, Langerin, CD56, Foxp3, and HLA-DR) to assess epidermal growth/differentiation, skin infiltration by T-cells and dendritic cells (DC), presence of regulatory T-cells, and the presence of inflammation-regulating molecules in skin lesions.

CCOc1cc([C@@H](CS(C)(=O)=O)N2C(=O)c3cccc(NC(C)=O)c3C2=O)ccc1OC [(S)—N-(2-(1-(3-ethoxy-4-methoxyphenyl)-2-(methylsulfonyl)ethyl)-1,3-dioxoisoindolin-4-yl)acetamide]
CD3+ T cells in the epidermis and dermis (20 mg BID): significant reductions | CD56+ NK cells in the epidermis (20 mg BID): significant reductions | CD56 in Epidermis: Biopsy Parameters Median Change (%) (Week 4, 20 mg BID, No. 16): −75.6% | Langerin in Dermis: Biopsy Parameters Median Change (%) (Week 4, 20 mg BID, No. 17): −50.0% | CD11c in Epidermis: Biopsy Parameters Median Change (%) (Week 4, 20 mg BID, No. 18): −73.1% | CD3 in Dermis: Biopsy Parameters Median Change (%) (Week 4, 20 mg BID, No. 19): −24.5% | CD3 in Epidermis: Biopsy Parameters Median Change (%) (Week 4, 20 mg BID, No. 19): −35.0% | Thickness: Biopsy Parameters Median Change (%) (Week 4, 20 mg BID, No. 19): −22.9% | CD11c in Dermis: Biopsy Parameters Median Change (%) (Week 4, 20 mg BID, No. 20): −45.8% | CD56 in Dermis: Biopsy Parameters Median Change (%) (Week 4, 20 mg BID, No. 20): −27.6% | Langerin in Epidermis: Biopsy Parameters Median Change (%) (Week 4, 20 mg BID, No. 20): 9.49% | CD3 T cells in Dermis: Median % change from baseline (Week 4, 20 mg b.i.d.): −24.5% | CD3 T cells in Epidermis: Median % change from baseline (Week 4, 20 mg b.i.d.): −35.0% | CD11c myeloid DC in Dermis: Median % change from baseline (Week 4, 20 mg b.i.d.): −45.8% | CD11c myeloid DC in Epidermis: Median % change from baseline (Week 4, 20 mg b.i.d.): −73.1% | CD56 NK cells in Dermis: Median % change from baseline (Week 4, 20 mg b.i.d.): −27.6% | CD56 NK cells in Epidermis: Median % change from baseline (Week 4, 20 mg b.i.d.): −75.6% | Epidermal Thickness: Median % change from baseline (Week 4, 20 mg b.i.d.): −22.9% | Langerin in Dermis: Median % change from baseline (Week 4, 20 mg b.i.d.): −50.0% | Langerin in Epidermis: Median % change from baseline (Week 4, 20 mg b.i.d.): 9.5% | reduction of epidermal CD11c+ infiltrates (Week 4, 20 mg b.i.d.): 73% | CD56 in Epidermis: Biopsy Parameters Median Change (%) (Week 12, 20 mg BID, No. 12): −77.6% | Langerin in Dermis: Biopsy Parameters Median Change (%) (Week 12, 20 mg BID, No. 12): −67.0% | CD11c in Epidermis: Biopsy Parameters Median Change (%) (Week 12, 20 mg BID, No. 13): −97.5% | CD11c in Dermis: Biopsy Parameters Median Change (%) (Week 12, 20 mg BID, No. 14): −56.0% | Thickness: Biopsy Parameters Median Change (%) (Week 12, 20 mg BID, No. 14): −34.8% | CD3 in Dermis: Biopsy Parameters Median Change (%) (Week 12, 20 mg BID, No. 15): −63.1% | CD3 in Epidermis: Biopsy Parameters Median Change (%) (Week 12, 20 mg BID, No. 15): −56.1% | CD56 in Dermis: Biopsy Parameters Median Change (%) (Week 12, 20 mg BID, No. 15): −18.2% | Langerin in Epidermis: Biopsy Parameters Median Change (%) (Week 12, 20 mg BID, No. 15): 41.67% | CD3 T cells in Dermis: Median % change from baseline (Week 12, 20 mg b.i.d.): −62.0% | CD3 T cells in Epidermis: Median % change from baseline (Week 12, 20 mg b.i.d.): −47.4% | CD11c myeloid DC in Dermis: Median % change from baseline (Week 12, 20 mg b.i.d.): −54.6% | CD11c myeloid DC in Epidermis: Median % change from baseline (Week 12, 20 mg b.i.d.): −88.6% | CD56 NK cells in Dermis: Median % change from baseline (Week 12, 20 mg b.i.d.): −12.5% | CD56 NK cells in Epidermis: Median % change from baseline (Week 12, 20 mg b.i.d.): −73.3% | Epidermal Thickness: Median % change from baseline (Week 12, 20 mg b.i.d.): −34.3% | Langerin in Dermis: Median % change from baseline (Week 12, 20 mg b.i.d.): −57.9% | Langerin in Epidermis: Median % change from baseline (Week 12, 20 mg b.i.d.): 17.1% | reduction of epidermal CD11c+ infiltrates (Week 12, 20 mg b.i.d.): 84% | cases showing improvement in psoriasis (reduction in epidermal hyperplasia and/or keratin 16 staining) (day 29, of the 20 cases analyzed, 20 mg b.i.d.): 10 cases | T-cells in biopsies (day 29 and day 85 biopsies, overall reductions not statistically significant): reductions | median reduction in epidermal thickness (day 85, 20 mg b.i.d.): 34% | epidermal Langerhan's cells (day 85 biopsies): small increase | cases showing absence of keratin 16 staining (day 85 biopsies, 20 mg b.i.d.): 5 cases | cases showing disease improvement (day 85 biopsies, of the 20 cases analyzed, 20 mg b.i.d.): Nine | CD56+ cells (NK cells or NK-T-cells) (during treatment, between week 4 and week 12): minimally altered | inflammatory myeloid CD11c+ DCs (TIP-DCs) (epidermis and dermis, week 4 and week 12, 20 mg BID): major reduction | Langerin in the epidermis (not statistically significant, not elevated in the dermis, 20 mg BID): slightly elevated | reductions in cellular infiltrates in epidermis and dermis, responders vs non-responders (responders: change in PASI of 75% or more at week 12): greater among responders | reduction in epidermal thickness (week 4, all measured values of thickness, 20 mg b.i.d.): 23%
